{"source": "patent US20170095505A1", "about": "“COMBINATION OF XENON AND AN ANTIOXIDANT TO CONTROL A PARKINSON'S DISEASE-TYPE NEURODEGENERATIVE DISEASE” (L'Air Liquide, Société Anonyme pour I'Etude et …, priority 2014, published 2017)", "test_system": "TH-positive (dopaminergic) neurons of mesencephalon cultures", "test": "Survival of TH-positive dopaminergic neurons in rat mesencephalon primary cultures, degeneration by chronic treatment with PDC, under controlled gaseous atmosphere", "assay_type": "cell-based", "parameters": "key to Survival of TH-positive neurons: a favorable response, synonymous with a decrease in the level of neuronal cell death in the presence of the treatments of interest, is denoted by a “+”, “++”, or “+++” sign (+++ = level of reference); a favorable response, synonymous with a decrease in the level of neuronal cell death in the presence of the treatments of interest, is denoted by a “+”, “++”, or “+++” sign; a favorable response, synonymous with a decrease in the level of neuronal cell death in the presence of the treatments of interest, is denoted by a “+”, “++”, or “+++” sign; an unfavorable response is represented by a “−” sign, synonymous with an increase in the neuronal death", "details": "for Survival of TH-positive neurons: D13-D16, analyzed D16; for survival rate of dopaminergic neuronal cells: % of cultures not treated with PDC under 75% nitrogen", "procedure": "Cultures are prepared from mesencephalon of rat embryos, taken from gestating female Wistar rats on day 15.5 of gestation. The method for obtaining the mesencephalon cultures comprises obtaining a homogeneous cell suspension via mechanical dissociation, i.e. non-enzymatic dissociation, of the embryonic tissue, using Leibovitz L15 medium (Sigma Aldrich). Aliquots of this suspension are added to Nunc 48-well plates, which were precoated with a thin layer of polyethyleneimine (1 mg/ml, borate buffer, pH 8.3) so as to enable the adhesion of the neuronal cells (cf. Toulorge et al., Faseb J, 2011). The seeding density is between approximately 80 000 and 100 000 cells/cm^2. The mesencephalon cultures are maintained in neurobasal culture medium, containing a B27 cocktail without antioxidant, N2 supplement, glutamine (2 mM) and a penicillin/streptomycin cocktail ([…] al., J Neurochem, 2008). The medium and supplements thereof are available from Life Technologies. Up to the time when the effects of the gases of interest are evaluated, the cultures are placed in a conventional enclosure thermostatically controlled at 37° C., in which the CO2 is maintained at 5% by volume and wherein the atmosphere is saturated with water. No change of culture medium is carried out throughout the culture period. Pharmacological Treatments of the Cultures p The degenerative process is triggered by applying a glutamate reuptake system blocker, L-trans-pyrrolidine-2,4-dicarboxylic acid or PDC (Zuiderwijk et al., Europ J Pharmacol, 1994). The antioxidant, namely Trolox, is added to the cultures before the application of PDC. Once the pharmacological treatments have been carried out, the multiwell plates containing the cells in culture and the plate used to humidify the internal compartment of the chamber are placed on a metal base which receives the Plexiglas incubation chamber. The two parts (base and Plexiglas chamber) are butt-joined together by screwing. A gas mixture of interest comprising (% by volume): 20% of O2, 5% of CO2 and 75% of the gas tested is then injected into the incubation chamber, with open inlet and outlet valves, while at the same time controlling the output flow rate by means of a flow meter. The gases tested are nitrogen and xenon. The reference output flow rate, set for air at 10 liters/min, is corrected according to the density of the mixture used. When the CO2 measurement reaches 5% at the outlet, the injection of the gas mixture is stopped and the chamber is made totally airtight by closing the inlet and outlet valves. The exposure chamber is then placed in an enclosure at 37° C. throughout the experimental protocol. After breaking the […] by opening the inlet and outlet valves and unscrewing the chamber from its base, the cultures are fixed with 4% formaldehyde in PBS for 12 min and then incubated at 4° C. with an anti-TH monoclonal antibody (dilution 1/5000) for 2 days. […] The image acquisition is carried out with an infrared imager of Odyssey type (Li-COR Biosciences) and the quantification of the neurons is carried out by means of the ICY software (Institut Pasteur). The results recorded on the figure appended hereto illustrate the synergistic protective effects of xenon and of Trolox in a cell model mimicking chronic Parkinsonian degeneration. […] The cultures are then recovered for fixing and analysis. The neuronal survival is quantified under the various experimental conditions tested, by counting the number of cell bodies immunopositive for the dopaminergic marker TH. The results are expressed in % (±SEM) of the mean values of the cultures not treated with PDC, maintained under 75% of nitrogen (control condition).", "data": [{"molecule": "Cc1c(C)c2c(c(C)c1O)CCC(C)(C(=O)O)O2", "note": "(stereo not drawn) [Trolox, 6-hydroxy-2,5,7,8-tetramethylchromane-2-carboxylic acid]", "values": [{"measurement": "Survival of TH-positive neurons", "setting": "PDC 100 μM + Trolox 0.1 μM, 75% N2", "result": "−"}, {"measurement": "Survival of TH-positive neurons", "setting": "PDC 100 μM + Trolox 0.3 μM, 75% N2", "result": "−"}, {"measurement": "Survival of TH-positive neurons", "setting": "PDC 100 μM + Trolox 1 μM, 75% N2", "result": "+"}, {"measurement": "Survival of TH-positive neurons", "setting": "PDC 100 μM + Trolox 10 μM, 75% N2", "result": "++"}, {"measurement": "Trolox concentration from which a significant protective effect is produced", "setting": "PDC 100 μM, 75% nitrogen, p<0.05 vs cultures exposed only to PDC in the same atmosphere", "result": "≥ 1", "unit": "µM"}, {"measurement": "effect of Trolox applied alone on neuronal survival", "setting": "PDC 100 μM, Trolox 0.1-0.3 μM, atmosphere containing 75% nitrogen", "result": "no significant effect"}]}, {"molecule": "[Xe]", "note": "[Xe, xenon]", "values": [{"measurement": "Survival of TH-positive neurons", "setting": "PDC 100 μM, 20% O2 + 5% CO2 + 75% Xe", "result": "++"}, {"measurement": "survival of dopaminergic neurons treated with PDC, 75% xenon compared with 75% nitrogen", "setting": "PDC 100 μM, Trolox present or absent, p<0.05 vs corresponding cultures under 75% nitrogen", "result": "increase in the survival"}, {"measurement": "survival rate of dopaminergic neuronal cells", "setting": "PDC 100 μM, nitrogen replaced with xenon (75%)", "result": 57.7, "unit": "%"}, {"measurement": "Survival of TH-positive neurons", "setting": "no PDC (Control group II), 20% O2 + 5% CO2 + 75% Xe", "result": "+++"}]}, {"molecule": "O=C(O)[C@H]1CN[C@H](C(=O)O)C1", "note": "(relative stereo) [PDC, L-trans-pyrrolidine-2,4-dicarboxylic acid]", "values": [{"measurement": "Survival of TH-positive neurons", "setting": "PDC 100 μM, 20% O2 + 5% CO2 + 75% N2", "result": "−"}, {"measurement": "survival rate of dopaminergic neuronal cells", "setting": "PDC 100 μM, atmosphere containing 75 vol % nitrogen", "result": 25.4, "unit": "%"}]}]}
